Assay results: ChEMBL document CHEMBL1135194, “Inhibition of Src kinase activity by 4-anilino-7-thienyl-3-quinolinecarbonitriles” (Bioorg Med Chem Lett, 2002)
Each block holds one molecule with its values, some of them ahead of it.

Molecular target: Proto-oncogene tyrosine-protein kinase Src (Homo sapiens, UniProt P12931)
Experiment: Inhibition of Src kinase in enzymatic assay

Proto-oncogene tyrosine-protein kinase Src, sequence (P12931 2-536 limits assumed): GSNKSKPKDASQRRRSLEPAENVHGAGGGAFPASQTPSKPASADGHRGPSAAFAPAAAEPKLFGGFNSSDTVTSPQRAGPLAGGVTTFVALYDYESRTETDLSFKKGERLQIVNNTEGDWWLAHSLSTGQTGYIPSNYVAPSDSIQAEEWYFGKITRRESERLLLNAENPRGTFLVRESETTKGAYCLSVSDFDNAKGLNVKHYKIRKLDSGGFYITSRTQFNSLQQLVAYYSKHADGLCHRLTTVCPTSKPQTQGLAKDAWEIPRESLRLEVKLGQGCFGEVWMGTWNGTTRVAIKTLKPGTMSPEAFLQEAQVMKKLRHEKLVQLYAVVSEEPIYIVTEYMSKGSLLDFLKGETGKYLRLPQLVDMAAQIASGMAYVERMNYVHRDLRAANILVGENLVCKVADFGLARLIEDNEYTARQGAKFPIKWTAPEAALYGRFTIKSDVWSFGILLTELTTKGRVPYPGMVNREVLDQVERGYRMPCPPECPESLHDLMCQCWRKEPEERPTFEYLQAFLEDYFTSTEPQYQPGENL

SMILES: COc1cc(Nc2c(C#N)cnc3cc(-c4ccsc4CN4CCOCC4)ccc23)c(Cl)cc1Cl
IC50: 440 nM

SMILES: COc1cc(Nc2c(C#N)cnc3ccc(-c4csc(CN5CCOCC5)c4)cc23)c(Cl)cc1Cl
IC50: 280 nM

SMILES: COc1cc(Nc2c(C#N)cnc3cc(-c4cscc4CN4CCOCC4)ccc23)c(Cl)cc1Cl
IC50: 240 nM

SMILES: COc1cc(Nc2c(C#N)cnc3cc(-c4csc(CN5CCOCC5)c4)ccc23)c(Cl)cc1Cl
IC50: 2.7 nM

Continued by falling IC50, values first:

IC50: 5.7 nM
SMILES: COc1cc(Nc2c(C#N)cnc3cc(-c4cc(CN5CCOCC5)cs4)ccc23)c(Cl)cc1Cl

IC50: 4.2 nM
SMILES: COc1cc(Nc2c(C#N)cnc3cc(-c4cc(CN5CCCCC5)cs4)ccc23)c(Cl)cc1Cl

IC50: 2.5 nM
SMILES: COc1cc(Nc2c(C#N)cnc3cc(-c4ccc(CN5CCOCC5)s4)ccc23)c(Cl)cc1Cl

IC50: 1.4 nM
SMILES: COc1cc(Nc2c(C#N)cnc3cc(-c4csc(CN5CCC(O)CC5)c4)ccc23)c(Cl)cc1Cl
